“Also recorded” adds a separate entry of the source.
How the values were obtained:
Type in all cases: cell-based
[1] = tested on: parental M059J cells lacking DNA-PKcs; experiment: Clonogenic assay, M059J; details: BRCA1 shRNA
Protocol: (§1) FIG. 6. […] (A) BRCA1-deficient HCC1937 and BRCA1-reconstituted HCC1937/BRCA1 cells were continuously exposed to ABT-888 in the presence or absence of 125 nM DNA-PKi and assayed for clonogenic survival. Inset, Western blots of cell lysates from HCC1937 and HCC1937/BRCA1. (B) Western blots of M059J and reconstituted M059J+DNA-PKcs lines showing the restoration of DNA-PK expression and the shRNA-mediated knockdown of BRCA1. (C) Clonogenic survival of shRNA transfected M059J/M059J+DNA-PKcs lines treated with ABT-888 for 72 hours. (D) Clonogenic survival of ATM-deficient GM16666 or ATM-reconstituted GM16667 fibroblasts. Cells were exposed to ABT-888 for 48 hours in the presence or absence of 250 nM DNA-PKi, washed, and allowed to form colonies. Inset, Western blots of lysates from GM16666 and GM16667 fibroblasts. […] Results are representative of 3 independent experiments.
(§2) All siRNA oligonucleotides were purchased from Ambion, Inc. (Austin, Tex.). Sequences, with references, are provided below. PEO1 and PEO4 cells were transfected with 150 picomoles of siRNA using the HiPerfect lipid transfection reagent (Qiagen; Valencia, Calif.). […]
(§3) Colony formation assays were performed on siRNA-transfected PEO1 and PEO4 cells 48 hours after the second transfection. […] Colonies containing ≧50 cells were scored manually. […]

[2] = tested on: NHEJ activity in PEO1 cells; experiment: NHEJ end-joining reporter assay, PEO1; details: 72 hours
Text: FIG. 3. Error-prone NHEJ activity is enhanced by PARP inhibitors in PEO1 cells. (A) Schematic of the in vivo NHEJ assay. Pem1-Ad2-EGFP is an EGFP-containing vector with a 2.4 kb intron (Pem1) and one exon (Ad2) inserted into the EGFP cassette. Pem1-Ad2-EGFP was cut with either HindIII or I-SceI to produce linearized substrate with compatible overhangs or incompatible inverted overhangs, respectively. Successfully recircularized plasmid will produce intact EGFP, which can be assayed via flow cytometry. Any residual uncut plasmid, due to the insertion of the Ad2 exon within the EGFP open reading frame, will be EGFP negative. A pCherry plasmid was co-transfected with substrate to correct for transfection efficiency. (B) and (C) Quantitation of NHEJ activity in PEO1 and PEO4 cells transfected with HindIII substrate (B) or I-SceI substrate (C) and exposed to ABT-888 for 72 hours. Each data point represents the mean±SEM from 3 independent experiments.
The end-joining reporter plasmid pEGFP-Pem1-Ad2 described elsewhere (Wang et al., Nucleic Acids Res., 34:6170-6182 (2006); Seluanov et al., Proc. Natl. Acad. Sci. USA, 101:7624-7629 (2004); and Fattah et al., PLoS Genet., 6:e1000855 (2010); see also (FIG. 3A)) was provided by E. Hendrickson (University of Minnesota, Minneapolis, Minn.) and was digested with either HindIII or I-SceI for 12 hours, and gel purified using a Qiagen gel extraction kit. […]

[3] = tested on: DNA-PKcs-reconstituted M059J cells; experiment: Clonogenic assay, M059J+DNA-PKcs; details: BRCA1 shRNA
Protocol: as §1, §2, §3

## C[C@]1(c2nc3c(C(N)=O)cccc3[nH]2)CCCN1 [ABT-888]
[1]
  clonogenic sensitivity to ABT-888 after BRCA1 knockdown: not sensitized
[2]; PEO1 cells compared to PEO4 cells
  end-joining of I-SceI-linearized substrate: significantly increased; also recorded: pronounced increase in end-joining
[2]; PEO1 cells
  end-joining of HindIII-linearized substrate: little effect; also recorded: small increase in end-joining
[3]
  clonogenic sensitivity to ABT-888 after BRCA1 knockdown: sensitized
